{
  "source": "patent US20110274652A1",
  "about": "“Methods for Treating Hepatitis C Virus Infection” (VERTEX PHARMACEUTICALS INCORPORATED, priority 2008, published 2011)",
  "origin": "cited, not measured here",
  "system": "Hepatitis C virus",
  "conditions": "interferon alfa monotherapy, chronic hepatitis C",
  "data": [
    {"substance": "interferon alfa", "values": [
      {"measurement": "cases with long term remission", "result": "~25", "unit": "%"}
    ]}
  ]
}
